Among the data in patent US12655130B2 (ASSEMBLY BIOSCIENCES, INC., priority 2020, dated 2026) are EC50 values, retold here.

pEC50: −log10 of the molar value. Some results are limits rather than exact numbers.

One experiment has as its system HBV viral load (viral production from HepAD38 cells). Kind of experiment: Activity of test compounds on viral production from HepAD38 cells (viral load by qPCR of HBV core sequence). The class given is cell-based. The settings on record: Hepatitis B virus, HePAD38, 120 h, viral load lowering, 5 days, qPCR of supernatant, read-out: VL HepAD38 EC50 range. In short, it runs like this: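 HepAD38 cells seeded at 50,000/well in tetracycline-free medium with 2% FBS, treated 5 days at 37 °C with compounds from 10 μM top concentration. Supernatant HBV DNA quantified by TaqMan qPCR of core sequence against HBV DNA standards, relative to DMSO wells; viability by CellTiter-Glo; EC50/CC50 by four-parameter logistic fit.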
A general note: Real-time PCR tracks product formation cycle by cycle.
In general, pEC50 refers to the EC50 on a negative log10 scale, so that one unit is a factor of ten. For `Cn1cnc(C2CC3CC(O)(c4c(F)c(C#N)nn4C)CC3C2)c1C(=O)Nc1ccc(F)c(Cl)c1` (stereo not drawn) [Example 64, N-(3-Chloro-4-fluorophenyl)-4-(5-(3-cyano-4-fluoro-1-methyl-1H-pyrazol-5-yl)-5-hydroxyoctahydropentalen-2-yl)-1-methyl-1H-Imidazole-5-carboxamide], the pEC50 is more than 8.00. Consider `O=C(Nc1ccc(F)c(Cl)c1)c1sc(C(F)(F)F)nc1C1CC2CC(O)CC2C1` (stereo not drawn) [Example 37, N-(3-chloro-4-fluorophenyl)-4-(5-hydroxyoctahydropentalen-2-yl)-2-(trifluoromethyl)thiazole-5-carboxamide], for which the pEC50 was 6.30 to 7.30. For `Cn1cnc(C2CC3CC(O)(c4ccccn4)CC3C2)c1C(=O)Nc1ccc(F)c(Cl)c1` (stereo not drawn) [Example 9, N-(3-Chloro-4-fluorophenyl)-4-(5-hydroxy-5-(pyridin-2-yl)octahydropentalen-2-yl)-1-methyl-1H-imidazole-5-carboxamide], the pEC50 was more than 8.00. Same read-out and setting: the value for `Cn1cc(Br)c(C2(O)CC3CC(c4ncn(C)c4C(=O)Nc4ccc(F)c(Cl)c4)CC3C2)n1` (stereo not drawn) [Example 117, 4-(5-(4-bromo-1-methyl-1H-pyrazol-3-yl)-5-hydroxyoctahydropentalen-2-yl)-N-(3-chloro-4-fluorophenyl)-1-methyl-1H-imidazole-5-carboxamide] was more than 8.00. `CCn1nc(N)cc1C1(O)CC2CC(c3ncn(C)c3C(=O)Nc3ccc(F)c(Cl)c3)CC2C1` (stereo not drawn) [Example 76]: the pEC50 was more than 8.00. In the case of `Cn1cc(Cl)c(C2(O)CC3CC(c4ncn(C)c4C(=O)Nc4ccc(F)c(Cl)c4)CC3C2)n1` (stereo not drawn) [Example 139, 4-(5-(4-Chloro-1-methyl-1H-pyrazol-3-yl)-5-hydroxyoctahydropentalen-2-yl)-N-(3-chloro-4-fluorophenyl)-1-methyl-1H-imidazole-5-carboxamide], the pEC50 is more than 8.00. `Cn1cc(C2(O)CC3CC(c4ncn(C)c4C(=O)Nc4ccc(F)c(C#N)c4)CC3C2)c(C(F)(F)F)n1` (stereo not drawn) [Example 115, N-(3-Cyano-4-fluorophenyl)-4-(5-hydroxy-5-(1-methyl-3-(trifluoromethyl)-1H-pyrazol-4-yl)octahydropentalen-2-yl)-1-methyl-1H-imidazole-5-carboxamide]: the pEC50 is more than 8.00. On the same count and under the same terms, as for `Cc1nc(C2CC3CC(=O)CC3C2)c(C(=O)Nc2ccc(F)c(Cl)c2)n1C` (stereo not drawn) [Example 23, N-(3-Chloro-4-fluorophenyl)-1,2-dimethyl-4-(5-oxooctahydropentalen-2-yl)-1H-imidazole-5-carboxamide], the figure is more than 8.00; as for `Cn1cnc(C2CC3CC(O)(c4c(C(F)(F)F)cnn4C)CC3C2)c1C(=O)Nc1ccc(F)c(Cl)c1` (stereo not drawn) [Example 99, N-(3-chloro-4-fluorophenyl)-4-(5-hydroxy-5-(1-methyl-4-(trifluoromethyl)-1H-pyrazol-5-yl)octahydropentalen-2-yl)-1-methyl-1H-imidazole-5-carboxamide], more than 8.00; as for `O=C(Nc1ccc(F)c(Cl)c1)c1c(C2CC3CC(O)CC3C2)nc2n1CCC2` (single isomer, unassigned) [Example 32, N-(3-Chloro-4-fluorophenyl)-2-(5-hydroxyoctahydropentalen-2-yl)-6,7-dihydro-5H-pyrrolo[1,2-a]imidazole-3-carboxamide], 7.30 to 8.00. The same measure, in the same setting: the value for `Cn1cnc(C2CC3CC(O)(c4ccnn4C)CC3C2)c1C(=O)Nc1ccc(F)c(Cl)c1` (stereo not drawn) [Example 10, N-(3-chloro-4-fluorophenyl)-4-(5-hydroxy-5-(1-methyl-1H-pyrazol-5-yl)octahydropentalen-2-yl)-1-methyl-1H-imidazole-5-carboxamide] was more than 8.00; that for `Cc1nc(C2CC3CC(O)(C(F)(F)F)CC3C2)c(C(=O)Nc2ccc(F)c(Cl)c2)n1C` (stereo not drawn) [Example 26, N-(3-Chloro-4-fluorophenyl)-4-(5-hydroxy-5-(trifluoromethyl)octahydropentalen-2-yl)-1,2-dimethyl-1H-imidazole-5-carboxamide] was 7.30 to 8.00. On the same count and under the same terms, the value for `CC(=O)NC(C)c1nn(C)cc1C1(O)CC2CC(c3ncn(C)c3C(=O)Nc3ccc(F)c(Cl)c3)CC2C1` (stereo not drawn) [Example 185, 4-(5-(3-(1-Acetamidoethyl)-1-methyl-1H-pyrazol-4-yl)-5-hydroxyoctahydropentalen-2-yl)-N-(3-chloro-4-fluorophenyl)-1-methyl-1H-imidazole-5-carboxamide] was more than 8.00; that for `CNc1nc(C2CC3CC(=O)CC3C2)c(C(=O)Nc2ccc(F)c(Cl)c2)n1C` (stereo not drawn) [Example 29, N-(3-Chloro-4-fluorophenyl)-1-methyl-2-(methylamino)-4-(5-oxooctahydropentalen-2-yl)-1H-imidazole-5-carboxamide] was 7.30 to 8.00. On to `CCn1nccc1C1(O)CC2CC(c3ncn(C)c3C(=O)Nc3ccc(F)c(Cl)c3)CC2C1` (stereo not drawn) [Example 119, N-(3-chloro-4-fluorophenyl)-4-(5-(1-ethyl-1H-pyrazol-5-yl)-5-hydroxyoctahydropentalen-2-yl)-1-methyl-1H-imidazole-5-carboxamide], for which the pEC50 was more than 8.00. With `Cn1cnc(C2CC3CC(O)(Cc4cc(C(F)(F)F)nn4C)CC3C2)c1C(=O)Nc1ccc(F)c(Cl)c1` (stereo not drawn) [Example 155, N-(3-Chloro-4-fluorophenyl)-4-(5-hydroxy-5-((1-methyl-3-(trifluoromethyl)-1H-pyrazol-5-yl)methyl)octahydropentalen-2-yl)-1-methyl-1H-imidazole-5-carboxamide], the pEC50 was more than 8.00.

Turning to `Cn1cnc(C2CC3CC(O)(c4c(Cl)cnn4C)CC3C2)c1C(=O)Nc1ccc(F)c(Cl)c1` (stereo not drawn) [Example 122, 4-(5-(4-chloro-1-methyl-1H-pyrazol-5-yl)-5-hydroxyoctahydro-pentalen-2-yl)-N-(3-chloro-4-fluorophenyl)-1-methyl-1H-imidazole-5-carboxamide], the pEC50 is more than 8.00. The same measure, in the same setting: as for `CCn1cc(C2(O)CC3CC(c4ncn(C)c4C(=O)Nc4ccc(F)c(Cl)c4)CC3C2)c(C(F)(F)F)n1` (stereo not drawn) [Example 151, N-(3-Chloro-4-fluorophenyl)-4-(5-(1-ethyl-3-(trifluoromethyl)-1H-pyrazol-4-yl)-5-hydroxyoctahydropentalen-2-yl)-1-methyl-1H-imidazole-5-carboxamide], the figure is more than 8.00; as for `Cn1cc(C2(O)CC3CC(c4ncn(C)c4C(=O)Nc4ccc(F)c(Cl)c4)CC3C2)c(C(F)F)n1` (stereo not drawn) [Example 132, N-(3-chloro-4-fluorophenyl)-4-(5-(3-(difluoromethyl)-1-methyl-1H-pyrazol-4-yl)-5-hydroxyoctahydropentalen-2-yl)-1-methyl-1H-imidazole-5-carboxamide], more than 8.00; as for `CC(N)c1cc(C2(O)CC3CC(c4ncn(C)c4C(=O)Nc4ccc(F)c(Cl)c4)CC3C2)n(C)n1` (stereo not drawn) [Example 112, 4-(5-(3-(1-Aminoethyl)-1-methyl-1H-pyrazol-5-yl)-5-hydroxyoctahydropentalen-2-yl)-N-(3-chloro-4-fluorophenyl)-1-methyl-1H-imidazole-5-carboxamide], 7.30 to 8.00.

Turning to `CCn1cc(C(F)(F)F)c(C2(O)CC3CC(c4ncn(C)c4C(=O)Nc4ccc(F)c(Cl)c4)CC3C2)n1` (stereo not drawn) [Example 159, N-(3-Chloro-4-fluorophenyl)-4-(5-(1-ethyl-4-(trifluoromethyl)-1H-pyrazol-3-yl)-5-hydroxyoctahydropentalen-2-yl)-1-methyl-1H-imidazole-5-carboxamide], the pEC50 was more than 8.00.

As to `Cn1cnc(C2CC3CC(O)(c4cc(C(C)(C)O)nn4C)CC3C2)c1C(=O)Nc1ccc(F)c(C#N)c1` (stereo not drawn) [Example 108, N-(3-Cyano-4-fluorophenyl)-4-(5-hydroxy-5-(3-(2-hydroxypropan-2-yl)-1-methyl-1H-pyrazol-5-yl)octahydropentalen-2-yl)-1-methyl-1H-imidazole-5-carboxamide], the pEC50 is more than 8.00.

For the compound `CC(C)Cn1nc(OCC(C)(C)O)cc1C1(O)CC2CC(c3ncn(C)c3C(=O)Nc3ccc(F)c(Cl)c3)CC2C1` (stereo not drawn) [Example 221, N-(3-Chloro-4-fluorophenyl)-4-(5-hydroxy-5-(3-(2-hydroxy-2-methylpropoxy)-1-isobutyl-1H-pyrazol-5-yl)octahydropentalen-2-yl)-1-methyl-1H-imidazole-5-carboxamide], the pEC50 was more than 8.00. As to `Cn1cnc(C2CC3CC(O)(c4cc(C(N)=O)nn4C)CC3C2)c1C(=O)Nc1ccc(F)c(Cl)c1` (stereo not drawn) [Example 176, 5-(5-(5-((3-Chloro-4-fluorophenyl)carbamoyl)-1-methyl-1H-imidazol-4-yl)-2-hydroxyoctahydropentalen-2-yl)-1-methyl-1H-pyrazole-3-carboxamide], the pEC50 is more than 8.00.

The same experiment, now with this note: read-out: VL HepAD38 EC50 range, viral load lowering, 5 days, qPCR of supernatant.
Consider `O=C1CC2CC(c3nc4n(c3C(=O)Nc3ccc(F)c(Cl)c3)CCCC4)CC2C1` (stereo not drawn) [Example 40, 2-[-5-Oxo-2,3,3a,4,6,6a-hexahydro-1H-pentalen-2-yl]-N-(3-chloro-4-fluorophenyl)-5,6,7,8-tetrahydroimidazo[1,2-a]pyridine-3-carboxamide], for which the pEC50 is 6.30 to 7.30.

The experiment is the same for the next values; noted with them: viral load lowering, 5 days, qPCR of supernatant, read-out: VL HepAD38 EC50 range.
Turning to `CC(O)c1nn(C)cc1C1(O)CC2CC(c3ncn(C)c3C(=O)Nc3ccc(F)c(Cl)c3)CC2C1` (single isomer, unassigned) [Example 189, N-(3-Chloro-4-fluorophenyl)-4-(5-hydroxy-5-(3-(1-hydroxyethyl)-1-methyl-1H-pyrazol-4-yl)octahydropentalen-2-yl)-1-methyl-1H-imidazole-5-carboxamide], the pEC50 was more than 8.00. The same measure, in the same setting: as for `CC(CO)Oc1cc(C2(O)CC3CC(c4ncn(C)c4C(=O)Nc4ccc(F)c(Cl)c4)CC3C2)n(C)n1` (stereo not drawn) [Example 67, N-(3-Chloro-4-fluorophenyl)-4-(5-hydroxy-5-(3-((1-hydroxypropan-2-yl)oxy)-1-methyl-1H-pyrazol-5-yl)octahydropentalen-2-yl)-1-methyl-1H-imidazole-5-carboxamide], the figure is more than 8.00.
